Data reported in US20250230165A1, “HETEROCYCLIC COMPOUNDS FOR USE IN THE TREATMENT OF CANCER” (ARTIOS PHARMA LIMITED, priority 2021, published 2025).

Molecular target: T1, Human Polθ polymerase domain (aa1820-2590) (Homo sapiens, UniProt O75417)
T1 construct: Human Polθ polymerase domain (aa1820-2590) was expressed in E. coli; made in house; host or cells: E. coli
T1 sequence (O75417 1820-2590): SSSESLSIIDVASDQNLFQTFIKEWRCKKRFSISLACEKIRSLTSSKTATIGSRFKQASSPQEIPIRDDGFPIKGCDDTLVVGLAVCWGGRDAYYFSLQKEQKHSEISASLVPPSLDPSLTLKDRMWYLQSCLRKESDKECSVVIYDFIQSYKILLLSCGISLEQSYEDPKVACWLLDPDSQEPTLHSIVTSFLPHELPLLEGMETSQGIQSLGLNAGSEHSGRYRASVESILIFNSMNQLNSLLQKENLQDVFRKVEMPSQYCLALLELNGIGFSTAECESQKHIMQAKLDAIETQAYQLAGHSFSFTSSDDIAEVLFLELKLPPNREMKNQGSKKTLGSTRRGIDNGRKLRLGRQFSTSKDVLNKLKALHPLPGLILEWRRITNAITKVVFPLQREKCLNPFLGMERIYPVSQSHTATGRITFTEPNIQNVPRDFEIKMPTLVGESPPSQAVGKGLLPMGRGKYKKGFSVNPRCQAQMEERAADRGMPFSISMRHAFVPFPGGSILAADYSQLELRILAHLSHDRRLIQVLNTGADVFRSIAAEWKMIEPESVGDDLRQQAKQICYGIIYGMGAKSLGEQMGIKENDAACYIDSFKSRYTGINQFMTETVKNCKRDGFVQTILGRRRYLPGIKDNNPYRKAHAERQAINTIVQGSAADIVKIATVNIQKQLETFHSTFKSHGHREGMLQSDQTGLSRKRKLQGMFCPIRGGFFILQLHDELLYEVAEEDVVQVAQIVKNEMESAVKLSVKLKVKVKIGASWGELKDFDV
Test: Polθ Polymerase Domain Kinact/KI Assay (PicoGreen)
Type: biochemical
Details: 0.8 nM Polθ, 100 nM DNA substrate, kobs vs [I] fit for 2-step covalent inhibitor
Procedure, shortened: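 Time-dependent inhibition was followed by quenching reactions with EDTA at points up to 60 min, then staining product DNA with PicoGreen fluorescence. Reactions held 0.8 nM E. coli-expressed Polθ, 100 nM primed DNA substrate and […] at pH 7.5, 1% DMSO. kobs versus inhibitor concentration gave Kinact and KI.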

Kinact/Kl | Structure (SMILES)
400000 M⁻¹ s⁻¹ | C=CC(=O)N1CC(c2nccc(CN3C[C@H]4CC(=O)N(c5cc(C(F)(F)F)cc(C)n5)[C@@H]4C(=O)N(C)c4cccc(F)c43)n2)C1 [Example 129, (3aR,11aS)-5-((2-(1-acryloylazetidin-3-yl)pyrimidin-4-yl)methyl)-6-fluoro-10-methyl-1-(6-methyl-4-(trifluoromethyl)pyridin-2-yl)-1,3a,4,5,10,11a-hexahydro-2H-benzo[b]pyrrolo[2,3-f][1,4]diazocine-2,11(3H)-dione]
1.7e+06 M⁻¹ s⁻¹ | C=CC(=O)N1CCn2nc(CN3C[C@H]4CC(=O)N(c5cc(C(F)(F)F)cc(C)n5)[C@@H]4C(=O)N(C)c4cccc(F)c43)nc2C1 [Example 133, (3aR,11aS)-5-((7-acryloyl-5,6,7,8-tetrahydro-[1,2,4]triazolo[1,5-a]pyrazin-2-yl)methyl)-6-fluoro-10-methyl-1-(6-methyl-4-(trifluoromethyl)pyridin-2-yl)-1,3a,4,5,10,11a-hexahydro-2H-benzo[b]pyrrolo[2,3-f][1,4]diazocine-2,11(3H)-dione]
2e+06 M⁻¹ s⁻¹ | C=CC(=O)N1CCC(n2cnc(CN3C[C@H]4CC(=O)N(c5cc(C(F)(F)F)cc(C)n5)[C@@H]4C(=O)N(C)c4cccc(Cl)c43)n2)CC1 [Example 135, (3aR,11aS)-5-((1-(1-acryloylpiperidin-4-yl)-1H-1,2,4-triazol-3-yl)methyl)-6-chloro-10-methyl-1-(6-methyl-4-(trifluoromethyl)pyridin-2-yl)-1,3a,4,5,10,11a-hexahydro-2H-benzo[b]pyrrolo[2,3-f][1,4]diazocine-2,11(3H)-dione]
1.08e+06 M⁻¹ s⁻¹ | C=CC(=O)N1CC(N(C)CCCN2C[C@H]3CC(=O)N(c4cc(C(F)(F)F)cc(C)n4)[C@@H]3C(=O)N(C)c3cccc(Cl)c32)C1 [Example 138, (3aR,11aS)-5-(3-((1-acryloylazetidin-3-yl)(methyl)amino)propyl)-6-chloro-10-methyl-1-(6-methyl-4-(trifluoromethyl)pyridin-2-yl)-1,3a,4,5,10,11a-hexahydro-2H-benzo[b]pyrrolo[2,3-f][1,4]diazocine-2,11(3H)-dione]
2.37e+06 M⁻¹ s⁻¹ | C=CC(=O)N1CC(n2cnc(CN3C[C@H]4CC(=O)N(c5cc(C(F)(F)F)cc(C)n5)[C@@H]4C(=O)N(C)c4cccc(C)c43)n2)C1 [Example 139, (3aR,11aS)-5-((1-(1-acryloylazetidin-3-yl)-1H-1,2,4-triazol-3-yl)methyl)-6,10-dimethyl-1-(6-methyl-4-(trifluoromethyl)pyridin-2-yl)-1,3a,4,5,10,11a-hexahydro-2H-benzo[b]pyrrolo[2,3-f][1,4]diazocine-2,11(3H)-dione]
1.34e+06 M⁻¹ s⁻¹ | Cc1cc(C(F)(F)F)cc(N2C(=O)C[C@@H]3CN(Cc4ccn(C5CN(C(=O)/C=C/CN(C)C)C5)n4)c4c(F)cccc4N(C)C(=O)[C@H]32)n1 [Example 145, (3aR, 11aS)-5-((1-(1-((E)-4-(dimethylamino)but-2-enoyl)azetidin-3-yl)-1H-pyrazol-3-yl)methyl)-6-fluoro-10-methyl-1-(6-methyl-4-(trifluoromethyl)pyridin-2-yl)-1,3a,4,5,10,11a-hexahydro-2H-benzo[b]pyrrolo[2,3-f][1,4]diazocine-2,11(3H)-dione]

Further lines, the compound ahead of its results:

Structure (SMILES) | Kinact/Kl
C=CC(=O)N1Cc2ccc(CN3C[C@H]4CC(=O)N(c5cc(C(F)(F)F)cc(C)n5)[C@@H]4C(=O)N(C)c4cccc(F)c43)cc2C1 [Example 130, (3aR,11aS)-5-((2-acryloylisoindolin-5-yl)methyl)-6-fluoro-10-methyl-1-(6-methyl-4-(trifluoromethyl)pyridin-2-yl)-1,3a,4,5,10,11a-hexahydro-2H-benzo[b]pyrrolo[2,3-f][1,4]diazocine-2,11(3H)-dione] | 710000 M⁻¹ s⁻¹
C=CC(=O)N1CCc2cc(CN3C[C@H]4CC(=O)N(c5cc(C(F)(F)F)cc(C)n5)[C@@H]4C(=O)N(C)c4cccc(F)c43)ccc2C1 [Example 131, (3aR,11aS)-5-((2-acryloyl-1,2,3,4-tetrahydoisoquinolin-6-yl)methyl)-6-fluoro-10-methyl-1-(6-methyl-4-(trifluoromethyl)pyridin-2-yl)-1,3a,4,5,10,11a-hexahydro-2H-benzo[b]pyrrolo[2,3-f][1,4]diazocine-2,11(3H)-dione] | 530000 M⁻¹ s⁻¹
C=CC(=O)N1CCn2cc(CN3C[C@H]4CC(=O)N(c5cc(C(F)(F)F)cc(C)n5)[C@@H]4C(=O)N(C)c4cccc(F)c43)nc2C1 [Example 132, (3aR,11aS)-5-((7-acryloyl-5,6,7,8-tetrahydroimidazo[1,2-a]pyrazin-2-yl)methyl)-6-fluoro-10-methyl-1-(6-methyl-4-(trifluoromethyl)pyridin-2-yl)-1,3a,4,5,10,11a-hexahydro-2H-benzo[b]pyrrolo[2,3-f][1,4]diazocine-2,11(3H)-dione] | 1.86e+06 M⁻¹ s⁻¹
C=CC(=O)N1CCn2c(nnc2CN2C[C@H]3CC(=O)N(c4cc(C(F)(F)F)cc(C)n4)[C@@H]3C(=O)N(C)c3cccc(F)c32)C1 [Example 134, (3aR,11aS)-5-((7-acryloyl-5,6,7,8-tetrahydro-[1,2,4]triazolo[4,3-a]pyrazin-3-yl)methyl)-6-fluoro-10-methyl-1-(6-methyl-4-(trifluoromethyl)pyridin-2-yl)-1,3a,4,5,10,11a-hexahydro-2H-benzo[b]pyrrolo[2,3-f][1,4]diazocine-2,11(3H)-dione] | 62000 M⁻¹ s⁻¹
C=CC(=O)N1CCn2cc(CN3C[C@H]4CC(=O)N(c5cc(C(F)(F)F)cc(C)n5)[C@@H]4C(=O)N(C)c4cccc(Cl)c43)nc2C1 [Example 136, (3aR,11aS)-5-((7-acryloyl-5,6,7,8-tetrahydroimidazo[1,2-a]pyrazin-2-yl)methyl)-6-chloro-10-methyl-1-(6-methyl-4-(trifluoromethyl)pyridin-2-yl)-1,3a,4,5,10,11a-hexahydro-2H-benzo[b]pyrrolo[2,1-f][1,4]diazocine-2,11(3H)-dione] | 6.47e+06 M⁻¹ s⁻¹
C=CC(=O)N1CC(C)(N2CCC(CN3C[C@H]4CC(=O)N(c5cc(C(F)(F)F)cc(C)n5)[C@@H]4C(=O)N(C)c4cccc(Cl)c43)CC2)C1 [Example 137, (3aR,11aS)-5-((1-(1-acryloyl-3-methylazetidin-3-yl)piperidin-4-yl)methyl)-6-chloro-10-methyl-1-(6-methyl-4-(trifluoromethyl)pyridin-2-yl)-1,3a,4,5,10,11a-hexahydro-2H-benzo[b]pyrrolo[2,3-f][1,4]diazocine-2,11(3H)-dione] | 980000 M⁻¹ s⁻¹
Cc1cc(C(F)(F)F)cc(N2C(=O)C[C@@H]3CN(Cc4ccc(C5CN(C(=O)/C=C/CN(C)C)C5)cc4)c4c(F)cccc4N(C)C(=O)[C@H]32)n1 [Example 146, (3aR,11aS)-5-(4-(1-((E)-4-(dimethylamino)but-2-enoyl)azetidin-3-yl)benzyl)-6-fluoro-10-methyl-1-(6-methyl-4-(trifluoromethyl)pyridin-2-yl)-1,3a,4,5,10,11a-hexahydro-2H-benzo[b]pyrrolo[2,3-f][1,4]diazocine-2,11(3H)-dione] | 1.68e+06 M⁻¹ s⁻¹
